According to PMC11350758, “Development of Xanthoangelol-Derived Compounds with Membrane-Disrupting Effects against Gram-Positive Bacteria” (Antibiotics, 2024):
≈ marks a conversion by molar mass, not a printed value. Read-outs that look alike come from different tables or passages of the source.

Key:
[1] = test system: S. aureus ATCC43300; test: Bactericidal time-kill assay; assay type: cell-based; details: 8× MIC, 16 μg/mL
Method: Natural AMPs have rapid bactericidal properties, and in order to examine whether active compound 9h have similar rapid bactericidal properties, the time-kill kinetics of 9h were carried out to test the bactericidal action against S. aureus ATCC4330 at four different concentrations.
S. aureus ATCC43300 was cultured at 37 °C for 6 h and diluted to 1×10^6 CFU/mL. […] At each time point, the bacterial suspension (20 μL) was diluted in PBS, and the number of bacterial colonies was measured. All biological experiments were repeated three times.

[2] = test system: S. aureus ATCC4330; test: microbe, parasite or virus in culture; assay type: cell-based; details: Staphylococcus aureus, read-out: MBC
Method: Due to the presence of various biological enzymes in plasma, natural AMPs are susceptible to enzymatic degradation upon entering the bloods, leading to a loss of their antimicrobial activity. To evaluate the plasma stability of active compound 9h, we conducted a stability assay by determining their MBC (minimum bactericidal concentration) values in plasma and different blood components. […] The observed initial increase in the MBC value, followed by remaining unchanged, could potentially be attributed to the initial binding of compound 9h with plasma proteins, causing a reduction in its activity. Once this binding became saturated, the bactericidal activity of the compound remained stable, further indicating the good stability of compound 9h in plasma.
MBCs of the compounds were tested. Furthermore, MBCs of compounds in 50% plasma, 50% serum, and 50% blood suspension were tested. The MBC value is defined as the concentration at which the colony count is less than 5 after 18 h of incubation at 37 °C. All biological experiments were repeated three times.

[3] = test system: S. aureus ATCC43300; test: Cytoplasmic membrane depolarization assay, DiSC3(5); assay type: cell-based; details: 16 μg/mL, at 20 min
Method: To explore the antibacterial mechanism of compound 9h, a cytoplasmic membrane depolarization assay was performed against S. aureus ATCC43300 using 3,3′-dipropylthiadicarbocyanine iodide (DiSC3(5)) assay. In general, DiSC3(5) could penetrate the intact cell membranes and was quenched when accumulated inside the bacterial cells. Once the cell membrane was destroyed, DiSC3(5) was released from the cell membrane, leading to a significant increase in fluorescence intensity. […] Moreover, the fluorescence intensity in S. aureus increased in a dose-dependent manner with increasing concentrations of 9h.
Mid-log S. aureus ATCC43300 was collected and then washed with PBS three times. Bacterial suspension (1.0 × 10^8 CFU/mL, 150 μL) was added to a black 96-well plate, and then fluorescent dye DiSC3(5) (10 μM, 50 μL) was pipetted into each well of plates and preincubated in the dark for 30 min. After the incubation, the fluorescence intensity was measured every minute for 6 min using a microplate reader (SpectraMax i3x, Molecular Devices, Sunnyvale, CA, USA) (λex/λem = 622 nm/670 nm). […] All biological experiments were repeated three times.

[4] = test system: Enterococcus faecium ATCC51559, vancomycin-resistant strain; test: MIC, broth microdilution; assay type: cell-based; details: Enterococcus faecium ATCC51559, vancomycin-resistant; read-out: MIC E. f. 51559
How it was run: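 Broth microdilution per CLSI: 2-fold serial compound dilutions in TSB broth, mixed with an equal volume of bacterial suspension at 10^6 CFU/mL. Incubated 37 °C for 24 h; experiments repeated three times.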

[5] = test system: red blood cells; test: Hemolysis assay; assay type: cell-based, Sheep; details: concentration required to lyse 50% of red blood cells; 37 °C, 1 h
Method: All target derivatives were assessed for their in vitro antibacterial activities using a broth microdilution assay to test their minimum inhibitory concentrations (MICs) against six Gram-positive strains (S. aureus ATCC31007, S. aureus ATCC25923, S. aureus ATCC43300, E. faecalis ATCC29212, B. subtilis ATCC9372, and S. epidermidis ATCC12228) and four Gram-negative strains (A. baumannii ATCC19606, K. pneumonia ATCC10031, E. coli ATCC25922, and P. aeruginosa ATCC27853). These compounds were also evaluated for their hemolytic activities and membrane selectivity by determining their HC50 (the concentration required to lyse 50% of red blood cells) and SI (HC50/MICs) values, respectively, and vancomycin was used as the positive drug.
To further detect the hemolytic toxicity and therapeutic potential of these derivatives, we proceeded to examine the hemolytic activities and membrane selectivity of these derivatives. The HC50 value was defined as the concentration needed for a compound to lyse 50% of red blood cells, and it is often used to evaluate the hemolytic toxicity to eukaryotic cells. […] The selectivity index (SI) was calculated by HC50/MICs of S. aureus ATCC43300 and was used to assess the potency and safety of the compounds. […] Thus, compound 9h was selected as a representative molecule for the in-depth in vitro and in vivo studies.
Sheep blood was used to isolate red blood cells (RBCs), which were then resuspended in 1× PBS (5%). The compounds were dissolved in PBS to give an initial concentration of 5.12 mg/mL, compound solution (100 μL) was added to the first well of a 96-well plate, two-fold serial dilutions of compounds were prepared in 96-well plates, and then 150 μL of 5% RBC suspension was added to each well. This was followed by incubation at 37 °C for 1 h. After incubation, the plate was centrifuged (3500 rpm, 5 min), and 100 μL of supernatant solution from each well was carefully pipetted into a new plate. The absorbance values were measured at 540 nm. Erythrocyte hemolysis rate = (Absorbancecompound – Absorbance negative control)/(Absorbance1% Triton X-100 − Absorbance negative control) × 100%. All biological experiments were repeated three times.

[6] = test system: S. aureus ATCC43300; test: Resistance development assay (serial passage); assay type: cell-based; details: serial passage at 1/2 MIC for 20 days
Method: The rapid increase in bacterial resistance to antibiotics is a major challenge in clinical treatment, and in order to assess the drug resistance development for compound 9h, we performed a drug resistance assay against S. aureus ATCC43300. Norfloxacin was selected as the positive control. The S. aureus cells were incubated with sub-MIC (1/2 MIC) concentration of compound 9h and were serially passaged for a duration of 20 days.
Resistance was defined as a more than 4-fold increase in the tested compound in MIC when compared to the beginning value. Briefly, S. aureus ATCC43300 was cultured (37 °C, 200 rpm) in MHB broth for 5 h and diluted to 1 × 10^6 CFU/mL. Then, the bacteria were cultured with compound 9h at a sub-MIC concentration (1/2 MIC) for 18 h. The MICs were determined according to this method for consecutive 20 days. All biological experiments were repeated three times.

CC(=O)c1c(OCCCNCCCN2CCN(C)CC2)c2c(c3c1OC(C)(CCC=C(C)C)C=C3)OC(C)(CCC=C(C)C)C=C2 (stereo not drawn) [Compound 9h, 1-(2,8-Dimethyl-2,8-bis(4-methylpent-3-en-1-yl)-5-(3-((3-(4-methylpiperazin-1-yl)propyl)amino)propoxy)-2H,8H-pyrano [2,3-f]chromen-6-yl)ethan-1-one]
time to complete bacterial killing [1]: 4 h | killing of S. aureus ([1]; within 1 h): ≥ 99.9% | colony-forming unit (CFU) reduction ([1]; within 1 h, compared with the control): 5.95 log | MBC ([2]; ATCC4330, dissolved in Mueller Hinton broth (MHB)): 16 µg/mL (≈ 25.2 µM) | MBC ([2]; ATCC4330, in 50% blood (Figure 3B)): 32 µg/mL (≈ 50.5 µM) | MBC ([2]; ATCC4330, in 50% plasma (Figure 3B)): 32 µg/mL (≈ 50.5 µM) | MBC ([2]; ATCC4330, in 50% serum (Figure 3B)): 32 µg/mL (≈ 50.5 µM) | MBC ([2]; ATCC4330, treatment with 50% plasma, unchanged after 3 and 6 h preincubation (Figure 3A)): 32 µg/mL (≈ 50.5 µM) | increase of DiSC3(5) fluorescence intensity vs blank control [3]: about 5 fold | MIC [4]: 4 µg/mL (≈ 6.31 µM) | HC50 [5]: 98.0 µg/mL | fold increase in MIC [6]: ≤ 4 fold
